# According to PMC8456958, “Selective Bacterial Targeting and Infection‐Triggered Release of Antibiotic Colistin Conjugates” (Angewandte Chemie (International Ed. in English), 2021):
# Positions of bridges follow the written chain, without caps; N, C: chain ends. Non-standard residues stand in square brackets, D forms with d. Residues, ends and D or L forms follow the SMILES beside them. *: point of attachment. Heptanoyl(6-Me) = CC(C)CCCCC(=O)*; Dab = NCC[C@H](N)C(=O)O
# Target: T1, neutrophil elastase (NE) (Homo sapiens, UniProt P08246)
# T1 construct: Activity of NE after co‐cultivation of PMN with E. coli K12 in presence of 1 or 6; endogenous in cells; host or cells: primary human PMN isolated from fresh venous whole blood of healthy volunteers, co-cultivated with E. coli K12
# T1 sequence (P08246 30-267): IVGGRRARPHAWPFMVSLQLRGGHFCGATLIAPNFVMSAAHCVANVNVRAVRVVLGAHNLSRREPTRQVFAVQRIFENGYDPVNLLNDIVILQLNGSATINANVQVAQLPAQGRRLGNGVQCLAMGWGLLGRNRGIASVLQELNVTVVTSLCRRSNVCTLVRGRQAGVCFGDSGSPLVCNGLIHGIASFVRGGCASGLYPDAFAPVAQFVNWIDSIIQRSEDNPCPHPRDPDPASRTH
# Assay: Activity of NE in co-cultivation of PMN with E. coli K12 (MeOSuc-AAPV-pNA cleavage)
# Assay type: cell-based
# Settings: 10 μM; PMN co-cultivated with E. coli K12, 1 h, 37 °C, RPMI 1640/HEPES-NaCl 1:1; mean of two experiments
# Protocol: Figure 5 Cellular proof of concept for triggered antibiotic release from 6. a) Release of neutrophil elastase (NE) from neutrophil granulocytes. PMN were isolated and suspended in RPMI 1640. For activation, 0.1 μM fMLP was added. The samples were incubated for 1 h at 37 °C, centrifuged to remove cells, and the NE concentration was determined in the supernatant by ELISA. Values normalized to 1×10^6 cells mL^−1. Data are presented as the mean of 4 separate experiments. *p<0.03 compared to unactivated. b) Activity of NE after co‐cultivation of PMN with E. coli K12 in presence of 1 or 6. […] After 1 h colistin concentrations were determined by HPLC–MS. […]
# Calculation of results: All samples and standards were measured in duplicate. The standard curve was constructed by plotting the mean absorbance for each standard on the y-axis against the concentration on the x-axis. A linear regression analysis was performed and the results for the samples were calculated. […]
# on. […] The plate was incubated in a microplate reader for 60 min at 37 °C with shaking for 5 sec at 50 rpm once per minute.
# Every minute readings were taken at 410 nm. For the calculation of the cleavage velocity, the difference in absorbance after an initialization phase at 15 min and a further incubation time of 30 min was used and related to total cleavage of the substrate. The blank was subtracted from the readings. […]
smiles,measurement,value
"CC(C)CCCCC(=O)N[C@@H](CCN)C(=O)N[C@H](C(=O)N[C@@H](CCN)C(=O)N[C@H]1CCNC(=O)[C@H]([C@@H](C)O)NC(=O)[C@H](CCN)NC(=O)[C@H](CCN)NC(=O)[C@H](CC(C)C)NC(=O)[C@@H](CC(C)C)NC(=O)[C@H](CCN)NC1=O)[C@@H](C)O [Compound 1, colistin B, reference compound] ({Heptanoyl(6-Me)}-[Dab]T[Dab][Dab][Dab][dL]L[Dab][Dab]T; lactam 4-C)",enhancing effect on the activity of NE,2.3–2.5 fold
